“Also recorded” adds a separate entry of the source.
What was measured:
H1650 cells [1] = test: Spheroid formation experiment, H1650 cells
A549 cells [2] = test: MTT cell viability assay, A549 cells; type: cell-based
Method: (§1) Cells were seeded at a density of 3×10^3 per well in 96-well plates, allowed to attach overnight, and treated with various concentrations of agent. After 72 h of treatment, 10 μL of MTT solution (5 mg/mL) was added to each well and cultured in the plate for 4 h. The crystallized formazan was dissolved in 100 μL of 10% (w/v) SDS and 0.01 mol/L HCl solution for 24 h, and then the value was read by spectrophotometry at 595 nm using a microplate reader.

H1975 cells = test: Spheroid formation experiment, H1975 cells; type: cell-based
Excerpt: The density of H1975 was 500 cells per well and the density of H1650 was 1000 cells per well in an ultra-low adhesion round bottom 96 well plate (Corning, #7007).

A549 cells [3] = test: Transwell cell migration assay; type: cell-based
Method: Cell migration and invasion assays were performed in a transwell chamber (Corning, #3422) with a pore size of 8 μm. Cells were treated with different concentrations of ATA and Erlotinib for 48 h, then harvested and resuspended in a serum-free medium. Cells (1×10^4) were added to the upper side of the transwell chamber and fresh medium containing 10% FBS was added to the lower side. Cells were allowed to migrate from the upper side to the lower side of the chamber at 37° C. for 24 h. Membranes from the cell chamber were fixed with 4% paraformaldehyde for 20 min. The cells remaining on the upper side of the membrane were gently removed with a cotton swab and stained with 1% crystal violet for 20 min to stain the cells migrating to the other side of the transwell chamber. The membrane was then cut and fixed on a glass slide. The migrated cells on each slide were imaged with a Leica M165-FC microscope. For the transwell invasion assay, a Matrigel solution (Corning, #356230) was diluted to one-thirtieth with serum-free medium and applied to the upper side of the precoated chamber for 2 h, after the Matrigel had solidified, the cells were added to the upper side of the transwell chamber. The following procedure is identical to the migration assay. Migrated and invaded cells were quantified using ImageJ software.

A549 cells [4] = test: Colony formation (cloning experiment), A549 cells; type: cell-based; conditions: 0.125 μM, 10 days
Method: Cells were seeded at a density of 1×10^3 per well in 6-well plates and cultured for 24 h. The cells were treated with medicament or DMSO for 10 days, after which the cells were washed once with 1×PBS, fixed with 4% paraformaldehyde for 20 min, and stained with 0.1% crystal violet for 15 min. The stained cells in each well were imaged and the number of colonies in each well was quantified using ImageJ software.

[5] = tested on: p70S6K, AURKA, MET, S6RP and EGFR protein levels; test: Western blot time course of protein reduction in A549 and H1650 cells; type: cell-based; conditions: 2 μM
Method: Cells were washed once with PBS and frozen in RIPA lysis buffer containing protease and phosphatase inhibitors (Sigma-Aldrich) for 30 min. After sonication and centrifugation, the total protein concentration was determined by protein assay using Bio-Rad concentrated dye reagent (Bio-Rad). Equal amounts of protein ([…]) from each sample were separated by SDS-PAGE and electrotransferred to nitrocellulose membranes (GE Healthcare). Detection was performed on the membrane with a 1:1000 dilution of specific primary antibody followed by incubation with a 1:2000 dilution of the HRP conjugated secondary antibody. Finally, immunoreactivity is detected with a chemiluminescent substrate (Clarity Western ECL substrate; Bio-Rad). EGFR (#4267S), MET (#8198S), p-Akt (#9271L), akt (#9272S), p-mTOR (#5536S), mTOR (#2983S), p-p70S6K (#9234S), p70S6K (#2708S), p-S6RP (#4857S), S6RP (#2217S), p-4E-BP1 (#9455S) antibodies. 4E-BP1 (#9644S), p53 (#2527S), p21 waf1/Cip1 (#2947S), survivin (#2808S), cyclin B1 (#12231S), cyclin D3 (#2936S) and GAPDH (#2118S) were purchased from Cell Signaling Technology. Aurora A (#ab13824) and PLK1 (#ab189139) antibodies were from Abcam.
In FIGS. 7, A549 and H1650 cells were treated with ATA (2 μM) for 6, 12, 24, 36, and 48 h, and the protein levels of p70S6K, AURKA, MET, S6RP, and EGFR at each time point were determined by Western blot analysis as shown in (A), and the quantified protein levels are shown in (B). […] (D) is protein levels of p70S6K, p-p70S6K, S6RP, p-S6RP, p21, cyclin D3, AURKA, PLK1, cyclin B1, survivin, EGFR, and MET determined by Western blot analysis for A549 and H1650 cells treated with 10 nM p70S6K siRNA and siRNA negative control for 48 h. (E) is cell viability measured by MTT test for A549 and H1650 cells treated with 10 nM p70S6K siRNA and the negative control siRNA for 48 h. ****P<0.0001 was based on a one-way analysis of variance followed by Tukey's multiple comparison test. (F) It is protein levels of p21, cyclin D3, AURKA, PLK1, cyclin B1, survivin, EGFR, and MET determined by Western blot analysis for A549 and H1650 cells treated with LY294002 (2 μM), PF-4708671 (2 μM), rapamycin (2 μM) and ATA (2 μM) for 48 h. (G) is expression levels of EGFR, MET, p-p70S6K, p70S6K, p-S6RP, S6RP, p21, cyclin D3, AURKA, PLK1, cyclin B1 and survivin in fibroblast HDF, A549 and H1650 cells determined by Western blot analysis, respectively. Statistical data are expressed as the mean SD of three independent experiments.

H1650 cells [6] = test: MTT cell viability assay, H1650 cells; type: cell-based
Method: as §1

## CC(=O)Oc1c(OC(C)=O)c2c(C)coc2c2ccc3c(c12)CCCC3(C)C [ATA, acetyltanshinone IIA]
H1650 cells [1]; 2 μM, 0 to 8 days
  spheroid growth / sphere size: completely inhibited
H1650 cells [1]; both 1 and 2 μM
  spheroid formation: strongly inhibited
A549 cells [2]
  IC50 ratio of Erlotinib/ATA: 10.7
A549 cells [2]; ATA 2 μM, 72 h, MTT
  growth inhibition compared with other agents: significantly higher than all three inhibitors; also recorded: greater growth inhibition than combination therapy with Erlotinib and MLN8237
A549 cells [2]; MTT, 72 h
  IC50: 1830 ± 210 nM
H1975 cells; 2 μM, 0 to 8 days
  spheroid growth / sphere size: completely inhibited
H1975 cells; both 1 and 2 μM
  spheroid formation: strongly inhibited
A549 cells [3]; 0.5 μM
  effect on cell migration: significant inhibitory effect
A549 cells [3]; 1 μM
  reduction of migration ability: 80%
A549 cells [4]
  reduction of colony-forming capacity: 42%
[5]
  time at which AURKA protein decreased: 12 h
  time at which EGFR protein decreased: 48 to 72 h
  time at which MET protein decreased: 24 h
  time at which S6RP protein decreased: 36 h
  time at which p70S6K protein decreased: 6 h
H1650 cells [6]
  IC50 ratio of Erlotinib/ATA: 17.3
H1650 cells [6]; ATA 2 μM, 72 h, MTT
  growth inhibition compared with other agents: significantly higher than all three inhibitors; also recorded: greater growth inhibition than combination therapy with Erlotinib and MLN8237
H1650 cells [6]; MTT, 72 h
  IC50: 1280 ± 290 nM

Source: patent US20240050449A1, “Use of Acetyltanshinone IIA in Preparation of Medicament for Treating Lung Cancer and Medicament for Treating Lung Cancer” (UNIVERSITY OF MACAU, priority 2022, published 2024)
